Laboratory results taken from the supplement of paper PMC10307832.

Experiments:
Test in all cases: relative viability (nuclei count vs DMSO), 5 days (fraction); higher = more cells survive
[1] = system: ChaGo-K-1
Summary of the method: (§1)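 Lung cancer cell lines, seeded in 1536-well plates, were treated the following day by pin tool with a single drug or with five library-drug doses (not always all listed) in √10 steps on top of a fixed anchor-drug dose. Cells were fixed and nuclei stained in one step after 5 days, and nuclei were counted. Relative viability is the nuclei count for treated wells divided by that for vehicle wells, reported as medians of duplicate plates.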

[2] = system: HCC-44
Summary of the method: as §1

[3] = system: NCI-H1734
Summary of the method: as §1

[4] = system: NCI-H2087
Summary of the method: as §1

[5] = system: NCI-H441
Summary of the method: as §1

[6] = system: NCI-H838
Summary of the method: as §1

[7] = system: NCI-H1975
Summary of the method: as §1

[8] = system: PC-3 [JPC-3]
Summary of the method: as §1

[9] = system: NCI-H522
Summary of the method: as §1

[10] = system: NCI-H1355
Summary of the method: as §1

[11] = system: EMC-BAC-2
Summary of the method: as §1

[12] = system: HCC-366
Summary of the method: as §1

[13] = system: HOP-62
Summary of the method: as §1

[14] = system: HCC-78
Summary of the method: as §1

[15] = system: NCI-H2347
Summary of the method: as §1

[16] = system: NCI-H727
Summary of the method: as §1

[17] = system: NCI-H2126
Summary of the method: as §1

[18] = system: LC-2-ad
Summary of the method: as §1

[19] = system: NCI-H1944
Summary of the method: as §1

## Oc1nc(-c2ccc(C(F)(F)F)cc2)nc2c1CSCC2 [XAV939] + NC(=O)Nc1cc(-c2cccc(F)c2)sc1C(=O)N[C@H]1CCCNC1 [AZD7762] (partner 0.2 µM)
[1]; first compound 0.08 µM
  relative viability: 0.904
[1]; first compound 0.253 µM
  relative viability: 0.686
[1]; first compound 0.8 µM
  relative viability: 0.717
[1]; first compound 2.53 µM
  relative viability: 0.754
[2]; first compound 0.08 µM
  relative viability: 0.899
[2]; first compound 0.253 µM
  relative viability: 0.89
[2]; first compound 0.8 µM
  relative viability: 0.953
[2]; first compound 2.53 µM
  relative viability: 0.872
[3]; first compound 0.08 µM
  relative viability: 0.617
[3]; first compound 0.253 µM
  relative viability: 0.515
[3]; first compound 0.8 µM
  relative viability: 0.59
[3]; first compound 2.53 µM
  relative viability: 0.51
[4]; first compound 0.08 µM
  relative viability: 1.29
[4]; first compound 0.253 µM
  relative viability: 1.2
[4]; first compound 0.8 µM
  relative viability: 1.22
[4]; first compound 2.53 µM
  relative viability: 1.31
[5]; first compound 0.08 µM
  relative viability: 1.08
[5]; first compound 0.253 µM
  relative viability: 0.947
[5]; first compound 0.8 µM
  relative viability: 1.27
[5]; first compound 2.53 µM
  relative viability: 1.27
[6]; first compound 0.08 µM
  relative viability: 0.93
[6]; first compound 0.253 µM
  relative viability: 0.842
[6]; first compound 0.8 µM
  relative viability: 0.923
[6]; first compound 2.53 µM
  relative viability: 0.799
[7]; first compound 0.08 µM
  relative viability: 0.684
[7]; first compound 0.253 µM
  relative viability: 0.534
[7]; first compound 0.8 µM
  relative viability: 0.504
[7]; first compound 2.53 µM
  relative viability: 0.516
[8]; first compound 0.253 µM
  relative viability: 0.691
[8]; first compound 0.8 µM
  relative viability: 0.753
[8]; first compound 2.53 µM
  relative viability: 0.801
[9]; first compound 0.08 µM
  relative viability: 0.914
[9]; first compound 0.253 µM
  relative viability: 0.797
[9]; first compound 0.8 µM
  relative viability: 0.825
[9]; first compound 2.53 µM
  relative viability: 0.819
[10]; first compound 0.08 µM
  relative viability: 0.728
[10]; first compound 0.253 µM
  relative viability: 0.613
[10]; first compound 0.8 µM
  relative viability: 0.626
[10]; first compound 2.53 µM
  relative viability: 0.561
[11]; first compound 0.08 µM
  relative viability: 1.1
[11]; first compound 0.253 µM
  relative viability: 1.04
[11]; first compound 0.8 µM
  relative viability: 0.95
[11]; first compound 2.53 µM
  relative viability: 0.878
[12]; first compound 0.08 µM
  relative viability: 0.423
[12]; first compound 0.253 µM
  relative viability: 0.211
[12]; first compound 0.8 µM
  relative viability: 0.188
[12]; first compound 2.53 µM
  relative viability: 0.132
[13]; first compound 0.08 µM
  relative viability: 0.827
[13]; first compound 0.253 µM
  relative viability: 0.503
[13]; first compound 0.8 µM
  relative viability: 0.613
[13]; first compound 2.53 µM
  relative viability: 0.323
[14]; first compound 0.08 µM
  relative viability: 0.595
[14]; first compound 0.253 µM
  relative viability: 0.514
[14]; first compound 0.8 µM
  relative viability: 0.648
[14]; first compound 2.53 µM
  relative viability: 0.527
[15]; first compound 0.08 µM
  relative viability: 0.803
[15]; first compound 0.253 µM
  relative viability: 0.612
[15]; first compound 0.8 µM
  relative viability: 0.796
[15]; first compound 2.53 µM
  relative viability: 0.58
[16]; first compound 0.08 µM
  relative viability: 0.514
[16]; first compound 0.8 µM
  relative viability: 0.626
[16]; first compound 2.53 µM
  relative viability: 0.783
[17]; first compound 0.08 µM
  relative viability: 1.04
[17]; first compound 0.253 µM
  relative viability: 0.912
[17]; first compound 0.8 µM
  relative viability: 0.943
[17]; first compound 2.53 µM
  relative viability: 0.882
[18]; first compound 0.08 µM
  relative viability: 0.865
[18]; first compound 0.253 µM
  relative viability: 0.711
[18]; first compound 0.8 µM
  relative viability: 0.806
[18]; first compound 2.53 µM
  relative viability: 0.724
[19]; first compound 0.08 µM
  relative viability: 0.589
[19]; first compound 0.253 µM
  relative viability: 0.539
[19]; first compound 0.8 µM
  relative viability: 0.477
[19]; first compound 2.53 µM
  relative viability: 0.382
